Experimental data as given in US9902703B2, “Somatostatin modulators and uses thereof” (Crinetics Pharmaceuticals, Inc., priority 2015, dated 2018).

molecular target: T1, human somatostatin receptor subtype 2 (Homo sapiens, UniProt P30874); test: cAMP assay (functional assay for SSTR2 agonists); type: cell-based; settings: CHO cells expressing human SSTR2; intracellular cAMP with forskolin, HTRF; read-out: SSTR2a EC50
T1 construct: expressed in transfected cells; host or cells: CHO (Chinese hamster ovary) cells, G-418 selected
Description: Functional Assay for SSTR2 Agonists
General overview: All five SSTR subtypes are Gi coupled G-protein coupled receptors (GPCRs) that lead to decreases in intracellular cyclic AMP (cAMP) when activated by an agonist. Therefore, measurement of intracellular cAMP levels can be used to assess whether compounds of the invention are agonists of SSTR subtypes (John Kelly, Troy Stevens, W. Joseph Thompson, and Roland Seifert, Current Protocols in Pharmacology, 2005, 2.2.1-2.2). One example of an intracellular cAMP assay is described below.
One day prior to the assay, 40,000 Chinese hamster ovary (CHO) cells expressing the human somatostatin receptor subtype 2 are plated in each well of a 96-well tissue culture plate in DM-MEM growth media (Gibco) with the following additives: 10% fetal bovine serum (Gibco), 100 U/mL penicillin (Gibco), 100 ug/mL streptomycin (Gibco), 10 mM HEPES (Gibco), 1.2 mM sodium hydroxide, 0.5 mg/mL G-418 (Gibco)). The cells are cultured overnight at 37° C., 5% CO2 and 95% humidity. On the day of the assay, the media is aspirated and the cells are washed with 1× Dulbecco's phosphate buffered saline (Gibco). Next, 5 μL of assay buffer (1× Earle's Balanced Salt Solution (Gibco), 5 mM MgCl2, 10 mM HEPES, 0.1% bovine serum albumin, 0.2 mM 3-Isobutyl-1-methylxanthine (IBMX, Biomol Research Labs)) and forskolin is added. Various dilutions of the compounds of the invention are prepared in assay buffer and 5 μL of the dilutions are added to the cultured cells and incubated for 15 minutes at 37° C. […] 10 μL of lysis buffer (HRTF cAMP kit, Cisbio) containing cAMP detection and visualization antibodies are added and the assay is allowed incubate for 1-24 hours at room temperature. The intracellular cAMP concentrations are then measured using a commercially available detection kit (for example, the cAMP HTRF kit, Cisbio). The measured intracellular cAMP concentrations are plotted vs. the concentration of the compounds of the invention and the EC50 of the compounds are calculated using standard methods.

T1 sequence (P30874 whole entry): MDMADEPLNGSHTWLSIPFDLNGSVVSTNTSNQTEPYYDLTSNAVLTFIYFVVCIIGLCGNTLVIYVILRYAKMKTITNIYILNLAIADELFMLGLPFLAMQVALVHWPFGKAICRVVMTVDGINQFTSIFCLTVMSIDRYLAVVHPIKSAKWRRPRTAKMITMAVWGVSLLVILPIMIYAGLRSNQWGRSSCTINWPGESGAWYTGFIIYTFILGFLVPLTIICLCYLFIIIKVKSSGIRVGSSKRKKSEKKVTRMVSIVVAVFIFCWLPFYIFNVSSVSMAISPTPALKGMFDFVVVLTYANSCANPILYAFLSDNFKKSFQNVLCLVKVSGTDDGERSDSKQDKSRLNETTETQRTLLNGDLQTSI

SMILES	EC50 [nM]
Cc1cc(Cl)cc(N2C=Nc3cc(C)c(-c4cc(O)ccc4C#N)cc3C2C(=O)N(C)C[C@@H]2CCCN2)c1 (stereo partly drawn) [Compound 1-21, 3-(3-chloro-5-methylphenyl)-6-(2-cyano-5-hydroxyphenyl)-N,7-dimethyl-N-[(2S)-pyrrolidin-2-ylmethyl]-3,4-dihydroquinazoline-4-carboxamide]	< 100
COc1cc(F)cc(N2C=Nc3cc(C)c(-c4cc(O)ccc4F)cc3C2C(=O)N(C)C[C@@H]2CCCN2)c1 (stereo partly drawn) [Compound 1-22, 6-(2-fluoro-5-hydroxyphenyl)-3-(3-fluoro-5-methoxyphenyl)-N,7-dimethyl-N-[(2S)-pyrrolidin-2-ylmethyl]-3,4-dihydroquinazoline-4-carboxamide]	< 100
Cc1cc(Cl)cc(N2C=Nc3cc(C)c(-c4cc(O)ccc4Cl)cc3C2C(=O)N(C)C[C@@H]2CCCCN2)c1 (stereo partly drawn) [Compound 1-23, 6-(2-chloro-5-hydroxyphenyl)-3-(3-chloro-5-methylphenyl)-N,7-dimethyl-N-[(2S)-piperidin-2-ylmethyl]-3,4-dihydroquinazoline-4-carboxamide]	< 100
Cc1cc(Cl)cc(N2C=Nc3cc(C)c(-c4cccc(C(N)=O)c4)cc3C2C(=O)N(C)C[C@@H]2CCCCN2)c1 (stereo partly drawn) [Compound 1-24, 6-(3-carbamoylphenyl)-3-(3-chloro-5-methylphenyl)-N,7-dimethyl-N-[(2S)-piperidin-2-ylmethyl]-3,4-dihydroquinazoline-4-carboxamide]	< 100
Cc1cc(F)cc(N2C=Nc3cc(C)c(-c4cccc(O)c4)cc3C2C(=O)N(C)C[C@@H]2CCCN2)c1 (stereo partly drawn) [Compound 1-25, 3-(3-fluoro-5-methylphenyl)-6-(3-hydroxyphenyl)-N,7-dimethyl-N-[(2S)-pyrrolidin-2-ylmethyl]-3,4-dihydroquinazoline-4-carboxamide]	< 100
Cc1cc(F)cc(N2C=Nc3cc(C)c(-c4cc(O)ccc4Cl)cc3C2C(=O)N(C)C[C@@H]2CCCN2)c1 (stereo partly drawn) [Compound 1-26, 6-(2-chloro-5-hydroxyphenyl)-3-(3-fluoro-5-methylphenyl)-N,7-dimethyl-N-[(2S)-pyrrolidin-2-ylmethyl]-3,4-dihydroquinazoline-4-carboxamide]	< 100
CC1=Nc2ccc(-c3cc(O)ccc3Cl)cc2C(C(=O)N(C)C[C@@H]2CCCN2)N1c1cc(C)cc(Cl)c1 (stereo partly drawn) [Compound 1-27, 6-(2-chloro-5-hydroxyphenyl)-3-(3-chloro-5-methylphenyl)-N,2-dimethyl-N-[(2S)-pyrrolidin-2-ylmethyl]-3,4-dihydroquinazoline-4-carboxamide]	< 100
CC1=Nc2ccc(-c3cc(O)ccc3Cl)cc2C(C(=O)NC[C@@H]2CCCN2)N1c1cc(C)cc(Cl)c1 (stereo partly drawn) [Compound 1-28, 6-(2-chloro-5-hydroxyphenyl)-3-(3-chloro-5-methylphenyl)-2-methyl-N-[(2S)-pyrrolidin-2-ylmethyl]-3,4-dihydroquinazoline-4-carboxamide]	< 100
Cc1cc(Cl)cc(N2C=Nc3ccc(-c4cccc(O)c4Cl)cc3C2C(=O)N(C)C[C@@H]2CCCN2)c1 (stereo partly drawn) [Compound 1-29, 6-(2-chloro-3-hydroxyphenyl)-3-(3-chloro-5-methylphenyl)-N-methyl-N-[(2S)-pyrrolidin-2-ylmethyl]-3,4-dihydroquinazoline-4-carboxamide]	< 100
Cc1cc(Cl)cc(N2C=Nc3ccc(-c4cc(O)ccc4Cl)cc3C2C(=O)N(C)C[C@@H]2CCCN2)c1 (stereo partly drawn) [Compound 1-30, 6-(2-chloro-5-hydroxyphenyl)-3-(3-chloro-5-methylphenyl)-N-methyl-N-[(2S)-pyrrolidin-2-ylmethyl]-3,4-dihydroquinazoline-4-carboxamide]	< 100
CCN(C[C@@H]1CCCN1)C(=O)C1c2cc(-c3cccc(O)c3)c(C)cc2N=CN1c1cc(C)cc(Cl)c1 (stereo partly drawn) [Compound 1-31, 3-(3-chloro-5-methylphenyl)-N-ethyl-6-(3-hydroxyphenyl)-7-methyl-N-[(2S)-pyrrolidin-2-ylmethyl]-3,4-dihydroquinazoline-4-carboxamide]	< 100
Cc1cc(Cl)cc(N2C=Nc3cc(C)c(-c4ccccc4)cc3C2C(=O)N(C)C[C@@H]2CCCN2)c1 (stereo partly drawn) [Compound 1-32, 3-(3-chloro-5-methylphenyl)-N,7-dimethyl-6-phenyl-N-[(2S)-pyrrolidin-2-ylmethyl]-3,4-dihydroquinazoline-4-carboxamide]	< 100
Cc1cc(Cl)cc(N2C=Nc3cc(C)c(-c4cccc(C#N)c4)cc3C2C(=O)N(C)C[C@@H]2CCCN2)c1 (stereo partly drawn) [Compound 1-33, 3-(3-chloro-5-methylphenyl)-6-(3-cyanophenyl)-N,7-dimethyl-N-[(2S)-pyrrolidin-2-ylmethyl]-3,4-dihydroquinazoline-4-carboxamide]	< 100
Cc1cc(Cl)cc(N2C=Nc3cc(C)c(-c4cc(F)ccc4Cl)cc3C2C(=O)N(C)C[C@@H]2CCCN2)c1 (stereo partly drawn) [Compound 1-35, 6-(2-chloro-5-fluorophenyl)-3-(3-chloro-5-methylphenyl)-N,7-dimethyl-N-[(2S)-pyrrolidin-2-ylmethyl]-3,4-dihydroquinazoline-4-carboxamide]	< 100
Cc1cc(Cl)cc(N2C=Nc3cc(C)c(-c4ccccc4Cl)cc3C2C(=O)N(C)C[C@@H]2CCCN2)c1 (stereo partly drawn) [Compound 1-36, 3-(3-chloro-5-methylphenyl)-6-(2-chlorophenyl)-N,7-dimethyl-N-[(2S)-pyrrolidin-2-ylmethyl]-3,4-dihydroquinazoline-4-carboxamide]	< 100
Cc1cc(Cl)cc(N2C=Nc3cc(C)c(-c4cc(C#N)ccc4Cl)cc3C2C(=O)N(C)C[C@@H]2CCCN2)c1 (stereo partly drawn) [Compound 1-37, 6-(2-chloro-5-cyanophenyl)-3-(3-chloro-5-methylphenyl)-N,7-dimethyl-N-[(2S)-pyrrolidin-2-ylmethyl]-3,4-dihydroquinazoline-4-carboxamide]	< 100
Cc1cc(Cl)cc(N2C=Nc3cc(C)c(-c4cc(F)cc(C#N)c4)cc3C2C(=O)N(C)C[C@@H]2CCCN2)c1 (stereo partly drawn) [Compound 1-38, 3-(3-chloro-5-methylphenyl)-6-(3-cyano-5-fluorophenyl)-N,7-dimethyl-N-[(2S)-pyrrolidin-2-ylmethyl]-3,4-dihydroquinazoline-4-carboxamide]	< 100
Cc1cc(C#N)cc(-c2cc3c(cc2C)N=CN(c2cc(C)cc(Cl)c2)C3C(=O)N(C)C[C@@H]2CCCN2)c1 (stereo partly drawn) [Compound 1-39, 3-(3-chloro-5-methylphenyl)-6-(3-cyano-5-methylphenyl)-N,7-dimethyl-N-[(2S)-pyrrolidin-2-ylmethyl]-3,4-dihydroquinazoline-4-carboxamide]	< 100
Cc1cc(Cl)cc(N2C=Nc3cc(C)c(-c4cc(F)cc(F)c4)cc3C2C(=O)N(C)C[C@@H]2CCCN2)c1 (stereo partly drawn) [Compound 1-40, 3-(3-chloro-5-methylphenyl)-6-(3,5-difluorophenyl)-N,7-dimethyl-N-[(2S)-pyrrolidin-2-ylmethyl]-3,4-dihydroquinazoline-4-carboxamide]	< 100
Cc1cc(Cl)cc(N2C=Nc3cc(C)c(-c4cccc(C#N)c4F)cc3C2C(=O)N(C)C[C@@H]2CCCN2)c1 (stereo partly drawn) [Compound 1-41, 3-(3-chloro-5-methylphenyl)-6-(3-cyano-2-fluorophenyl)-N,7-dimethyl-N-[(2S)-pyrrolidin-2-ylmethyl]-3,4-dihydroquinazoline-4-carboxamide]	< 100
Cc1cc(Cl)cc(N2C=Nc3cc(C)c(-c4cc(C#N)cc(C(F)(F)F)c4)cc3C2C(=O)N(C)C[C@@H]2CCCN2)c1 (stereo partly drawn) [Compound 1-42, 3-(3-chloro-5-methylphenyl)-6-[3-cyano-5-(trifluoromethyl)phenyl]-N,7-dimethyl-N-[(2S)-pyrrolidin-2-ylmethyl]-3,4-dihydroquinazoline-4-carboxamide]	< 100
Cc1cc(Cl)cc(N2C=Nc3cc(C)c(-c4cccc(C(F)(F)F)c4)cc3C2C(=O)N(C)C[C@@H]2CCCN2)c1 (stereo partly drawn) [Compound 1-43, 3-(3-chloro-5-methylphenyl)-N,7-dimethyl-N-[(2S)-pyrrolidin-2-ylmethyl]-6-[3-(trifluoromethyl)phenyl]-3,4-dihydroquinazoline-4-carboxamide]	< 100
Cc1cc(Cl)cc(N2C=Nc3cc(C)c(-c4cccc(C#N)c4C)cc3C2C(=O)N(C)C[C@@H]2CCCN2)c1 (stereo partly drawn) [Compound 1-44, 3-(3-chloro-5-methylphenyl)-6-(3-cyano-2-methylphenyl)-N,7-dimethyl-N-[(2S)-pyrrolidin-2-ylmethyl]-3,4-dihydroquinazoline-4-carboxamide]	< 100
Cc1cc(Cl)cc(N2C=Nc3ccc(-c4cccc(O)c4)cc3C2C(=O)N(C)C[C@@H]2CCCN2)c1 (stereo partly drawn) [Compound 1-45, 3-(3-chloro-5-methylphenyl)-6-(3-hydroxyphenyl)-N-methyl-N-[(2S)-pyrrolidin-2-ylmethyl]-3,4-dihydroquinazoline-4-carboxamide]	< 100
